# Data taken from ChEMBL document CHEMBL1133155, “Carbonic anhydrase inhibitors: topical sulfonamide antiglaucoma agents incorporating secondary amine moieties” (Bioorg Med Chem Lett, 2000).
# pKi: −log10 of the molar value.
# Experiments:
# [1] = biological target: Carbonic anhydrase 2 (Homo sapiens, UniProt P00918)
# Description: Inhibition of human cloned Carbonic anhydrase II
# [2] = biological target: Carbonic anhydrase 1 (Homo sapiens, UniProt P00915)
# Description: Inhibition of human cloned Carbonic anhydrase I
# [3] = biological target: T1, Carbonic anhydrase 4 (Bos taurus, UniProt Q95323)
# T1 sequence (Q95323 whole entry): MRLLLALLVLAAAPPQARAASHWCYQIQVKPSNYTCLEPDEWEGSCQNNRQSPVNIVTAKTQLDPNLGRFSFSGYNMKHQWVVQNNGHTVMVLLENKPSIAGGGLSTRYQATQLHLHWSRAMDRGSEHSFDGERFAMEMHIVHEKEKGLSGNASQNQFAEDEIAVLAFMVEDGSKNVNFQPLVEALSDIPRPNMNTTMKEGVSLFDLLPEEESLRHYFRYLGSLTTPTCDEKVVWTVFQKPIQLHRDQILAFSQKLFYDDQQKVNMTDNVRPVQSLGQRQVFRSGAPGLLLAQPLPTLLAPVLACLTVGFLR
# Description: Inhibition of bovine Carbonic anhydrase IV determined by esterase method
# [4] = species on record: Oryctolagus cuniculus
# Description: Reduction of intraocular pressure in normotensive rabbits after treatment with 50 uL of compound (as HCl salt) at pH 5.5 in eye after 60 min from administration, to that of controls
# [5] = species on record: Oryctolagus cuniculus; remark: listed apart in the source
# Description: Reduction of intraocular pressure in normotensive rabbits after treatment with 50 uL of compound (as HCl salt) at pH 5.5 in eye after 30 min from administration, to that of controls
# [6] = species on record: Oryctolagus cuniculus; remark: listed apart in the source
# Description: In vitro transcorneal accession rate (intact cornea) of compound was determined
# [7] = species on record: Oryctolagus cuniculus; remark: listed apart in the source
# Description: Reduction of intraocular pressure in normotensive rabbits after treatment with 50 uL of compound (as HCl salt) at pH 5.5 in eye after 0 min from administration, to that of controls
# [8] = species on record: Oryctolagus cuniculus; remark: listed apart in the source
# Description: Reduction of intraocular pressure in normotensive rabbits after treatment with 50 uL of compound (as HCl salt) at pH 5.5 in eye after 90 min from administration, to that of controls
# [9] = physchem; conditions: buffer, pH 7.4
# Description: Solubility (hydrochloride salt) in buffer at pH 7.4 and at 25 degree celsius.
# [10] = species on record: Oryctolagus cuniculus; remark: listed apart in the source
# Description: In vitro transcorneal accession rate (without epithelium) of compound was determined
# [11] = octanol/water
# Description: Partition coefficient (logD) (chloroform/buffer)
# [12] = species on record: Oryctolagus cuniculus; remark: listed apart in the source
# Description: Reduction of intraocular pressure in normotensive rabbits after treatment with 50 uL of compound (as HCl salt) at pH 5.5 in eye after 240 min from administration, to that of controls
# Chain of Carbonic anhydrase 1 (P00915 whole entry): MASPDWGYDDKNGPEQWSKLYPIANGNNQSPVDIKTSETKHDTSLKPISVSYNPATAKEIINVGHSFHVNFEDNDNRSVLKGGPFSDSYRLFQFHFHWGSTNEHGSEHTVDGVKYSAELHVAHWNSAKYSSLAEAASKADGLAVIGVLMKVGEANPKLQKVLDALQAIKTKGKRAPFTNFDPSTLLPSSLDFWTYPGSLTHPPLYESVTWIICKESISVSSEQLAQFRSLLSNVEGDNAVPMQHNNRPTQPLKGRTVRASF
Structure (SMILES),pKi [1],pKi [2],pKi [3],Delta IOP [4] [mmHg],Delta IOP [5] [mmHg],Kin [6] [h⁻¹],Delta IOP [7] [mmHg],Delta IOP [8] [mmHg],solubility [9] [mM],Kin [10] [h⁻¹],logD [11],Delta IOP [12] [mmHg]
NS(=O)(=O)c1nnc(NS(=O)(=O)c2ccc(NCc3cc(=O)oc4cc(Cl)ccc34)cc2)s1,8.70,8.30,8.40,–,–,–,–,–,–,–,–,–
Cn1nc(S(N)(=O)=O)s/c1=N\S(=O)(=O)c1ccc(NCc2cc(=O)oc3cc(Cl)ccc23)cc1,9.30,9.00,9.22,–,–,–,–,–,–,–,–,–
NS(=O)(=O)c1ccc(CCNCc2cc(=O)oc3cc(Cl)ccc23)cc1,6.92,6.02,6.65,–,–,–,–,–,–,–,–,–
NS(=O)(=O)c1cc(S(N)(=O)=O)c(NCc2cc(=O)oc3cc(Cl)ccc23)c(Cl)c1Cl,7.74,6.30,7.31,–,–,–,–,–,–,–,–,–
Cn1nc(S(N)(=O)=O)s/c1=N\Cc1cc(=O)oc2cc(Cl)ccc12,8.22,7.54,7.80,6,–,–,–,–,–,–,–,–
NS(=O)(=O)c1ccc(NCc2cc(=O)oc3cc(Cl)ccc23)c(I)c1,7.44,6.21,7.15,–,–,–,–,–,–,–,–,–
NS(=O)(=O)c1cccc(NCc2cc(=O)oc3cc(Cl)ccc23)c1,6.60,4.70,6.55,–,–,–,–,–,–,–,–,–
NS(=O)(=O)c1ccccc1NCc1cc(=O)oc2cc(Cl)ccc12,6.57,4.67,6.52,–,–,–,–,–,–,–,–,–
NS(=O)(=O)c1ccc(CNCc2cc(=O)oc3cc(Cl)ccc23)cc1,6.84,5.97,6.62,–,–,–,–,–,–,–,–,–
NS(=O)(=O)c1cccc(NS(=O)(=O)c2ccc(NCc3cc(=O)oc4cc(Cl)ccc34)cc2)c1,8.22,7.44,7.52,–,–,–,–,–,–,–,–,–
NS(=O)(=O)c1ccc(NNCc2cc(=O)oc3cc(Cl)ccc23)cc1,6.56,4.66,6.49,–,–,–,–,–,–,–,–,–
NS(=O)(=O)c1ccc(NCc2cc(=O)oc3cc(Cl)ccc23)c(Cl)c1,7.35,6.28,7.02,–,–,–,–,–,–,–,–,–
NS(=O)(=O)c1cc(S(N)(=O)=O)c(NCc2cc(=O)oc3cc(Cl)ccc23)cc1Cl,7.92,6.40,7.30,–,–,–,–,–,–,–,–,–
NS(=O)(=O)c1nnc(NC(=O)CCNCc2cc(=O)oc3cc(Cl)ccc23)s1,8.70,7.92,7.80,8.3,5.1,3300,0,7.2,62,8400,0.683,3.4
CCN(Cc1cc(=O)oc2cc(Cl)ccc12)C1CC(C)S(=O)(=O)c2sc(S(N)(=O)=O)cc21 (stereo not given),8.10,4.74,7.60,3.7,1.9,2100,0,1.6,41,5900,1.762,0
NS(=O)(=O)c1ccc(NCc2cc(=O)oc3cc(Cl)ccc23)cc1,6.90,4.82,6.77,–,–,–,–,–,–,–,–,–
NS(=O)(=O)c1ccc(NCc2cc(=O)oc3cc(Cl)ccc23)c(Br)c1,7.48,6.22,7.11,–,–,–,–,–,–,–,–,–
NS(=O)(=O)c1nnc(NCc2cc(=O)oc3cc(Cl)ccc23)s1,8.15,7.44,7.82,5.8,3.9,2800,0,4.9,54,6500,0.558,1.5
NS(=O)(=O)c1ccc(NCc2cc(=O)oc3cc(Cl)ccc23)c(F)c1,7.52,6.27,6.96,–,–,–,–,–,–,–,–,–
NS(=O)(=O)c1nnc(NN2C(=O)c3cccnc3C2=O)s1,8.10,7.41,7.74,–,–,2500,–,–,72,7600,0.315,–
NS(=O)(=O)c1ccc(NS(=O)(=O)c2ccc(NCc3cc(=O)oc4cc(Cl)ccc34)cc2)cc1,8.52,7.48,7.85,–,–,–,–,–,–,–,–,–
